Experimental data taken from patent US9775877B2, “Combinations with a backbone-cyclized peptide” (POLYPHOR AG, priority 2012, dated 2017).
Non-standard residues stand in square brackets, D forms with d. dDab = NCC[C@@H](N)C(=O)O; Orn = NCCC[C@H](N)C(=O)O; Dab = NCC[C@H](N)C(=O)O

Tested on: Pseudomonas aeruginosa clinical isolate PAX11045
Test: Efficacy in murine pneumonia model, compound 1 in combination with tigecycline (Example 1)
Format: in vivo
Experimental: Colony counts in lung were determined at 20 hours post treatment.
Fresh overnight colonies of PAX11045 from a 5% Horse Blood Agar plate were suspended in 0.9% sterile saline to approximately 10^8 CFU/ml and further diluted to approximately […]. Female mice (DBA/2, […], 18-22 g, Chales River) were anesthetized with 0.08 ml of Zoletil and inoculated via the nose with a pipette with 0.1 ml of the bacteria suspension containing approximately 10^6 CFU. 4 hours after inoculation, the mice were treated orally with 45 μl neurophen (20 mg ibuprofen/ml corresponding to approximately 30 mg/kg) as pain relief.
[…] As positive control Ciprofloxacin was used in the same manner with a fixed dose of 20 mg/kg.
Colony counts were determined post inoculation at 4 hours (untreated mice) and 24 hours (treated and vehicle-only treated mice). Immediately after the mice were sacrificed, the lungs were collected and frozen at −20° C. After thawing, the organs were homogenized in 1 ml 0.9% saline. Each sample was then 10 fold diluted in saline and 20 μl spots were applied on blood agar plates. All agar plates were incubated 18-24 hours at 35° C. in ambient air.

[1] = compound 1 in presence of 12.5 mg/kg tigecycline, mice, murine lungs

Row | Compound | effect on bacterial loads (tigecycline 12.5 mg/kg alone, s.c. single dose 3 h post infection, lung) | Top level (compound 1 in presence of 12.5 mg/kg tigecycline (s.c., 3 h post infection), mice, murine lungs) | 2 log killing dose [1] | Bottom level [1] | Emax [1] | Static dose [1] | ED50 (compound 1 in presence of a fixed dose of tigecycline (12.5 mg/kg), mice, s.c., murine lungs, colony counts 20 h post treatment)
1 | CN(C)c1cc(NC(=O)CNC(C)(C)C)c(O)c2c1C[C@H]1C[C@H]3[C@H](N(C)C)C(O)=C(C(N)=O)C(=O)[C@@]3(O)C(O)=C1C2=O [tigecycline, reference compound] | no effect |  |  |  |  |  | 
2 | cyclo(TWI[Dab][Orn][dDab][Dab]W[Dab][Dab]AS[dP]P) [compound 1] |  | 0.13 log10 CFU/ml | 2.1 mg/kg | −2.37 log10 CFU/ml | 2.5 log10 CFU/ml | 0.74 mg/kg | 1.33 mg/kg
